According to patent US9387192B2, “Combination of rocaglamide and apoptosis inducing substances for the treatment of cancer” (DKFZ DEUTCHERS KREBSFORSCHUNGSZENTRUM, priority 2008, dated 2016):

Key:
[1] = cited from earlier work
[2] = tested on: mouse leukemic RMA T cells; test: Activation-induced apoptosis in RMA cells in vitro; assay type: cell-based
Protocol: (§1) The mouse lymphoma cell line RMA (van Hall et al., 2000), the human leukemic T cell lines DND-41 (contains a p53 mutation), Jurkat J16, Jurkat A3 and Jurkat A3 deficient in FADD (J-FADDdef) (purchased from American Type Culture Collection, ATCC, Manassas, USA) were cultured in RPMI 1640 medium (GIBCO laboratories, Grand Island, N.Y.) supplemented with 10% FCS, 50 μg/ml gentamicin (GIBCO), 6 mM HEPES (GIBCO, 1 M solution), and 2 mM L-glutamine (GIBCO, 200 mM solution) at 37° C. and 5% CO2. T cells were stimulated with either plate-bound αCD3 (OKT3 10 μg/ml) or PMA (5 ng/ml) plus ionomycin (0.5 μM).
(§2) Cells were plated in triplicates and treated for the indicated periods of time at 37° C. with different reagents as described in the figure legends. Rocaglamide derivatives used in this study were isolated from various Aglaia species to at least 98% purity determined by HPLC as reported previously (Schneider et al., 2000). The structures of the compounds were unequivocally elucidated based on their NMR and mass spectra as described before (Schneider et al., 2000). Apoptotic cell death was examined by two parameters: FSC/SSC index of apoptotic-like change in cell size and granularity by FACScan and by analysis of DNA fragmentation (Vermes et al., 2000).

[3] = tested on: RMA tumor; test: RMA tumor graft in C57/BL6 mice; assay type: in vivo, mouse
Protocol: C57/BL6 mice were implanted subcutaneously in the right dorsal flank region with RMA (1×10^6 cells). One day after grafting, Roc-Q (1 mg/kg body weight, dissolved in DMSO and diluted in olive oil) was administered by intraperitoneal injection (i.p.) as indicated in the figure legend. The control group was treated in an analogous manner with the vehicle. The tumor size was measured with a micrometer caliper at the indicated times and the tumor volume (V) was calculated by the formula V=(a^2×b)/2, where “a” is the width and “b” is the length in mm (Mattern et al., 1998). All protocols using and maintaining animals were approved by the German Animal Protection Authority (Office Regierungspräsidium Karlsruhe). Treated and control animals were compared for differences in tumor growth after end of treatment using the non-parametric method in a one-sided statistical test at the significance level of 0.05 (Koziol et al., 1981).
To investigate whether the effect of Roc on activation-induced cell death is also occurred in vivo, RMA cells were grafted subcutaneously into the C57/BL6 mice. One day after xenografting, the mice were randomly separated into four groups (each group contains 5 mice). One group with no treatment was taken as a control, and the other three groups received Con A, Roc-Q, or a combination of Roc-Q and Con A, respectively, three times per week by intraperitoneal injection (i.p.). Two independent experiments were carried out. In the first experiment, RMA (10×10^5 cells)-grafted mice were treated with or without 1 mg/kg body weight of Roc-Q in the presence or absence of Con A as described in FIG. 4A. No toxicity was seen up to a dose of 10 mg/kg body weight (Lee et al., 1998). Acute toxicity was reported with an LD50 of >300 mg/kg (Umezawa et al., 1997). […] In this experiment, the control mice developed tumors after 9 days.

[4] = Glutamate pyruvate transaminase (GPT) liver toxicity in mice; assay type: in vivo, mouse; conditions: RMA-grafted mice treated with Roc-Q, Con A or both; normal GPT below 50 U/l
Protocol: To examine the liver toxicity of Rocaglamide, the activities of GPT were determined from the heparinized blood of mice by test strips Reflotron® GPT as described by the instruction of the manufacture (Roche 10745138). The normal levels of GPT activity should be below 50 U/l.

[5] = tested on: leukemia cell line Jurkat; test: Apoptosis (FSC/SSC) in Jurkat with TNFα or TRAIL; assay type: cell-based; conditions: 24 h
Protocol: (§3) Pancreatic carcinoma cell lines MiaPaca and Capan-1 were treated with Roc-A (50 nM) in combination with different doses of anticancer reagents for 48 h. Apoptotic cell death was determined by Nicoletti (DNA-fragmentation). The leukemia cell line Jurkat was treated with either TNFα (20 ng/ml) or TRAIL (2 ng/ml) in combination with different doses of rocaglamide as indicated for 24 h. Apoptotic cell death was determined by FSC/SSC.

[6] = tested on: MiaPaca pancreatic carcinoma cell line; test: Apoptosis (Nicoletti) in MiaPaca with anticancer reagents; assay type: cell-based; conditions: Roc-A 50 nM with different doses of anticancer reagents, 48 h
Protocol: as §3

[7] = tested on: caspase-8, -9, -3, Bid, PARP; test: Western blot of apoptotic pathway proteins in Jurkat T cells; assay type: cell-based, human; conditions: 24 h
Protocol: 1×10^6 cells were sedimented and lysed for 15 min in ice-cold lyses buffer (29 mM Tris-HCl, pH 7.4, 137 mM NaCl, 10% (w/v) Glycerin, 1% (v/v) Triton X-100, 2 mM EDTA, 1 mM PMSF, 0.4 mM […], 10 mM NaF, complete protease inhibitor cocktail, Roche). After removing the cell debris by centrifugation at 13,000 rpm for 15 min, equal amounts of proteins were separated on a 12% SDS-PAGE, blotted onto a nitrocellulose membrane (Amersham Biosciences, Little Chalfon, UK) and blocked with 5% non-fat drymilk in PBS/Tween (0.05% Tween-20 in PBS). […]

[8] = tested on: human leukemic DND-41 T cells (p53 mutation); test: Apoptosis in DND-41 T cells; assay type: cell-based
Protocol: as §1, §2

[9] = tested on: normal peripheral blood T cells; test: Activation-induced cell death in normal peripheral blood T cells (day 0, day 6); assay type: cell-based, human
Protocol: Human peripheral T cells were prepared as described previously (Klas et al., 1993) and were more than 90% CD3 positive. For activation, resting T cells (day 0) were cultured at 2×10^6 cells/ml with 1 μg/ml PHA for 16 h (day 1). Day 1 T cells were then washed three times and cultured for an additional 5 days in the presence of 25 U/ml IL-2 (day 6).
as §2

[10] = tested on: human leukemic Jurkat T cells; test: Apoptosis (FSC/SSC, DNA fragmentation) in Jurkat T cells; assay type: cell-based
Protocol: as §1, §2

[11] = tested on: Capan-1 pancreatic carcinoma cell line; test: Apoptosis (Nicoletti) in Capan-1 with anticancer reagents; assay type: cell-based; conditions: Capan-1, Roc-A 50 nM with different doses of anticancer reagents, 48 h
Protocol: as §3

[12] = tested on: Hodgkin lymphoma cell line L1236; test: Apoptosis (DNA fragmentation) in L1236 cells; assay type: cell-based, human; conditions: L1236, TRAIL alone, different concentrations, 48 h
Protocol: (§4) The human malignant cell lines used in this study are: the human leukemic T cell lines CEM and Jurkat (J16), the HTLV-1 ATL derived cell lines SP, MT-2, CHAMP, and ATL-3, and Hodgkin lymphoma derived cell lines L1236 and KM-H2. Human peripheral blood T cells were prepared as described previously (Zhu et al., 2009) and were more than 90% CD3 positive. All cells were cultured in RPMI 1640 medium (GIBCO laboratories, Grand Island, N.Y.) supplemented with 10% FCS, 50 μg/ml gentamicin (GIBCO), 6 mM HEPES (GIBCO, 1 M solution), and 2 mM L-glutamine (GIBCO, 200 mM solution) at 37° C. and 5% CO2.
(§5) Cells were plated in triplicates and treated for the indicated periods of time at 37° C. with different doses of Rocaglamide AR (Roc-AR) (>98% pure, assessed by HPLC) (Proksch et al., 2005), Superkiller-TRAIL (Alexis) or LZ-CD95L (Walczak et al., 1999) alone, or in combinations as indicated in figures. Apoptotic cell death was determined by analysis of DNA fragmentation (% DNA fragmentation) as previously described (Krueger et al., 2006). Specific apoptosis was calculated as (percentage of experimental apoptosis−percentage of spontaneous apoptosis)/(100−percentage of spontaneous apoptosis)×100.

[13] = tested on: HTLV-1-associated ATL cell lines SP, MT-2, ATL-3 and CHAMP; test: Apoptosis (DNA fragmentation) in HTLV-1-associated ATL cell lines; assay type: cell-based, human; conditions: HTLV-1-infected ATL cell lines, TRAIL alone, different concentrations
Protocol: as §4, §5

[14] = tested on: Hodgkin lymphoma cell line KM-H2; test: Apoptosis (DNA fragmentation) in KM-H2 cells; assay type: cell-based, human; conditions: KM-H2, TRAIL alone, different concentrations, 48 h
Protocol: as §4, §5

CNC(=O)C1C(O)C2(O)c3c(OC)cc(OC)cc3OC2(c2ccc(OC)cc2)C1c1ccccc1 (centres unmarked) [Roc-Q]
dose up to which no toxicity was seen ([1]; Lee et al., 1998): ≤ 10 mg/kg body weight
acute toxicity LD50 ([1]; Umezawa et al., 1997): > 300 mg/kg
PMA/ionomycin- or Con A-stimulation induced cell death [2]: enhanced
tumor size and tumor growth rate ([3]; first experiment, 10×10^5 RMA cells, single agent only (Roc-Q 1 mg/kg or Con A 5 mg/kg) i.p. three times per week): No significant changes in tumor size and tumor growth rate
tumor growth ([3]; first experiment, Roc-Q 1 mg/kg combined with Con A 5 mg/kg i.p.): delayed tumor growth
tumor size ([3]; first experiment, Roc-Q 1 mg/kg combined with Con A 5 mg/kg i.p., final day): reduced tumor sizes
body weight loss ([3]; mice after treatment with Roc-Q, Con A or both): no body weight loss
tumor growth ([3]; second experiment, 2.5×10^5 RMA cells, single agent only (Roc-Q 2.5 mg/kg or Con A 5 mg/kg) i.p.): Significantly delayed tumor growth
tumor progression and tumor growth ([3]; second experiment, Roc-Q 2.5 mg/kg combined with Con A 5 mg/kg, except for one mouse): further inhibition
tumor size and tumor weight ([3]; second experiment, Roc-Q alone 2.5 mg/kg): reduced tumor sizes and tumor weight
liver toxicity (GPT activity) [4]: No liver toxicity

COc1ccc([C@@]23Oc4cc(OC)cc(OC)c4[C@]2(O)[C@H](O)[C@H](C(=O)N(C)C)[C@H]3c2ccccc2)cc1 [rocaglamide]
apoptotic cell death ([5]; TNFα 20 ng/ml with different doses of rocaglamide): synergistically increased the apoptic cell death
apoptotic cell death ([5]; TRAIL 2 ng/ml with different doses of rocaglamide): synergistically increased the apoptic cell death

Roc-A
apoptotic cell death [6]: synergistically increased the apoptic cell death
caspase and PARP cleavage (Western blot) ([7]; Roc-A alone): activation of caspase-9 and generation of a detectable amount of the active p17 caspase-3 product and weak PARP cleavage
cleavage of caspase-8 (Western blot) ([7]; Roc-A with T-cell stimulation (PMA/ionomycin)): strongly increased cleavages of caspase-8
PMA/ionomycin- or Con A-stimulation induced cell death [2]: enhanced
cell death compared to Jurkat T cells ([8]; DND-41, Roc-A alone): more resistant
apoptotic cell death ([8]; DND-41, combination of Roc-A and PMA/ionomycin stimulation): dramatic increase in apoptotic cell death
toxicity ([9]; day 0 (resting) T cells, Roc-A alone 50 nM, 48 h): no toxicity
cell death ([9]; day 0 T cells, Roc-A 50 nM with PMA/ionomycin, 48 h): did not increase cell death
PMA/ionomycin-induced cell death ([9]; day 6 (pre-activated) T cells re-stimulated with PMA/ionomycin, Roc-A 50 nM): did not further enhance PMA/ionomycin-induced cell death
apoptotic cell death ([10]; Jurkat T cells stimulated with αCD3 or PMA/ionomycin in the presence of Roc-A): dose-dependent increase in apoptotic cell death
apoptotic cell death ([10]; Jurkat, Roc-A 50 nM combined with anti-CD95 antibody αAPO-1, 24 h): enhanced apoptotic cell death
apoptotic cell death ([10]; Jurkat, Roc-A 50 nM combined with recombinant LZ-CD95L, 24 h): enhanced apoptotic cell death
apoptotic cell death [11]: synergistically increased the apoptic cell death

TRAIL
TRAIL-mediated apoptosis [12]: completely resistant
TRAIL-induced apoptosis [13]: resistant to TRAIL-induced apoptosis
TRAIL-mediated apoptosis [14]: completely resistant
